According to patent US20210115366A1, “METHODS OF MAKING IMPROVED HUMAN INTESTINAL ORGANOID COMPOSITIONS VIA APPLICATION OF STRAIN AND HUMAN INTESTINAL ORGANOID COMPOSITIONS THEREOF” (Children's Hospital Medical Center, priority 2017, published 2021):
Entries after “also recorded” stand apart in the source; their conditions may differ.

Tests used:
tHIO = test: Ex vivo muscle strength (organ bath, isometric force) of tHIO muscle strips; parameters: species or system human
Description: (§1) After an equilibration period, muscle force contraction was assayed using a logarithmic series of bethanechol doses ranging in concentration from 1 nM to 10 mM. Representative tensile response recordings are plotted for tHIO, tHIO+S and adult jejunum (FIG. 7B). […] To better visualize the differences between tHIO and tHIO+S the data was also plotted sans adult jejunum (FIG. 7C, right panel).
(§2) tHIO and tHIO+S grafts were harvested and placed in ice-cold Hank's Balanced Salt Solution (HBSS). Human surgical samples were maintained overnight at 4° C. in HBSS prior to assaying in order to minimize the effects of anesthetics. Muscle strips (4-6 mm in length and 1-2 mm in width) were dissected from the samples. Strips were then suspended vertically in an organ bath chamber (Radnoti) filled with freshly prepared Krebs-Ringer solution (Sigma; supplemented with 2.5 mM CaCl and 15 mM NaHCO3; pH 7.4), warmed to 37° C. and gassed with 95% O2+5% CO2. Segments were allowed to equilibrate for an hour at an initial tension of 0.5 g. The contractile response of the muscle was continuously recorded, using 4-chamber tissue-organ bath chambers with isometric force transducers (0-25 g; AD Instruments) coupled to a multi-channel bridge amplifiers and data recorder (AD Instruments; PowerLab 4/35) linked to a computer equipped with LabChart Pro software (AD Instruments). […]

tHIO+S = test: Ex vivo muscle strength (organ bath, isometric force) of tHIO+S muscle strips; parameters: species or system human
Description: as §1, §2

adult human jejunum = test: Ex vivo muscle strength (organ bath, isometric force) of adult jejunum muscle strips
Description: as §1, §2

infant jejunum = test: Ex vivo muscle strength (organ bath, isometric force) of infant jejunum muscle strips; parameters: species or system human; details: 10 μM after bethanechol dose series
Description: as §1, §2

[1] = 10 μM after bethanechol dose series

SMILES	tensile response to bethanechol (tHIO; 1 nM to 10 mM, EC50 with 95% confidence could not be determined)	EC50 (tHIO+S; Homo sapiens, logarithmic doses 1 nM to 10 mM, read-out: effective concentration to achieve half of the maximal response (EC50), muscle contraction) [µM]	EC50 (adult human jejunum; adult human jejunum muscle strips, logarithmic doses 1 nM to 10 mM, read-out: effective concentration to achieve half of the maximal response (EC50), muscle contraction) [µM]	tension before and after administration of scopolamine (relaxation) (tHIO; [1])	tension before and after administration of scopolamine (relaxation) (tHIO+S; [1])	tension before and after administration of scopolamine (relaxation) (adult human jejunum; adult jejunum muscle strips, 10 μM after bethanechol dose series)	tension before and after administration of scopolamine (relaxation) (infant jejunum)
CC(C[N+](C)(C)C)OC(N)=O (stereo not shown) [bethanechol, Carbamyl-p-methylcholine chloride]	low overall tensile response	14.7	3.28				
CN1[C@@H]2C[C@@H](OC(=O)[C@H](CO)c3ccccc3)C[C@H]1[C@@H]1O[C@@H]12 [scopolamine]				Relaxation was successfully induced; also recorded: relaxation is observed	Relaxation was successfully induced; also recorded: relaxation is observed	Relaxation was successfully induced	Relaxation was successfully induced
